Literature values in patent US8759371B2, “Heterocyclic compounds and their uses” (Amgen Inc., priority 2010, dated 2014).

Key:
[1] = tested on: rheumatoid arthritis model; conditions: in vivo
[2] = tested on: systemic lupus erythematosis model; conditions: in vivo
p110δ = target: T1, p110δ (Homo sapiens, UniProt O00329)
T1 sequence (O00329 1-1044): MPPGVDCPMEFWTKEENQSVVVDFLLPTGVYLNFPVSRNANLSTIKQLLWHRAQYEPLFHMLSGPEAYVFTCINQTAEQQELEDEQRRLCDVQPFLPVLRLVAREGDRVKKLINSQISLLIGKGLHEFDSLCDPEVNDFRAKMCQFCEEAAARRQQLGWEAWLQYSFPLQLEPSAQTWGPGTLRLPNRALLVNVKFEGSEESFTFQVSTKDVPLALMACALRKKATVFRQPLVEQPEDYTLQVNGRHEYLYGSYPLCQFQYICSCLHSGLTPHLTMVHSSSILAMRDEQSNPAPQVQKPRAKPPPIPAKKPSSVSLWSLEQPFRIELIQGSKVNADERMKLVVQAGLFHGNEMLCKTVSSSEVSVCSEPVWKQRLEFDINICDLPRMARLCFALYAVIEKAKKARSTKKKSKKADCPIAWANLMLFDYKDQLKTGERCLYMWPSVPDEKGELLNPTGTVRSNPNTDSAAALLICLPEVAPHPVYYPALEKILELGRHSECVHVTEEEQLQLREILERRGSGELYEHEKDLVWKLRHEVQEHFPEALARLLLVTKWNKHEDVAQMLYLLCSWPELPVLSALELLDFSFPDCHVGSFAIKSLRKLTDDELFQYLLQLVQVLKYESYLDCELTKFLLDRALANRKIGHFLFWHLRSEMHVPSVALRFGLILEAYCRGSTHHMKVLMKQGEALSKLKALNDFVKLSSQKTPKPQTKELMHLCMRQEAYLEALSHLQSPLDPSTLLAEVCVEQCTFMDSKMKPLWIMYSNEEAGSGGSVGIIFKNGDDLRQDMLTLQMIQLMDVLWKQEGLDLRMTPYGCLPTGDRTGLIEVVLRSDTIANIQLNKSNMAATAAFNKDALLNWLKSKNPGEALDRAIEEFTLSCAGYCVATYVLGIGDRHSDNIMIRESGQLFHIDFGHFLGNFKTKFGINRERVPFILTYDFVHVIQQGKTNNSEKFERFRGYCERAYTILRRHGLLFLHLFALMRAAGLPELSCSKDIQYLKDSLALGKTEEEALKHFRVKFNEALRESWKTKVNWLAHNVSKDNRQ

[3] = tested on: passive cutaneous anaphylaxis (PCA); conditions: absence of functional delta (IC 87114 and p110δ D910A mice)
[4] = tested on: ovalbumin-induced airway inflammation

Row | SMILES | efficacy in mouse model of rheumatoid arthritis [1] | onset of disease in model of systemic lupus erythematosis [2] | inhibits p110δ (p110δ) | activity against any protein kinases tested (protein kinases) | passive cutaneous anaphylaxis (PCA) [3] | inflammation and disease in murine model of asthma [4]
1 | O=C1NC(=O)/C(=C\c2ccc3nccnc3c2)S1 [AS 605240] | efficacious | delay onset of disease |  |  |  | 
2 | Cc1ccccc1-n1c(Cn2cnc3c(N)ncnc32)nc2cccc(C)c2c1=O [IC87114] |  |  | high nanomolar range (triple digit) | no activity | significantly reduced | significantly ameliorate inflammation and disease
